Activity calls are given as the source filed them. The calls are words filed in the database; no cut-off is given here.
What was measured:
[1] = target: T1, Protein cereblon/NAD-dependent protein deacylase sirtuin-6 (Homo sapiens, UniProt Q8N6T7+Q96SW2); assay: PROTAC activity at CRBN/SIRT6 in human SK-HEP1 cells assessed as induction of SIRT6 degradation incubated for 36 hrs by Western blot analysis; type: cell-based
Target sequence in this assay (Q8N6T7 whole entry): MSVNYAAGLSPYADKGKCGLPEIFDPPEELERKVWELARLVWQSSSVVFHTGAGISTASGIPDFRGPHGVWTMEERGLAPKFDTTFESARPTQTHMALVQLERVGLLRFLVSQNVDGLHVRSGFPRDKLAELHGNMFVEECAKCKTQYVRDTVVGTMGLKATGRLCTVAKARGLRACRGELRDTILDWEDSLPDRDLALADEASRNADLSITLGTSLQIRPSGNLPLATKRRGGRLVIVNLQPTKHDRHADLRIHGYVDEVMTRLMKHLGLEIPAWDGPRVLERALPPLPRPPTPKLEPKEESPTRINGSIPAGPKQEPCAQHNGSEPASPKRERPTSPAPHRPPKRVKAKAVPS
Target sequence in this assay (Q96SW2 whole entry): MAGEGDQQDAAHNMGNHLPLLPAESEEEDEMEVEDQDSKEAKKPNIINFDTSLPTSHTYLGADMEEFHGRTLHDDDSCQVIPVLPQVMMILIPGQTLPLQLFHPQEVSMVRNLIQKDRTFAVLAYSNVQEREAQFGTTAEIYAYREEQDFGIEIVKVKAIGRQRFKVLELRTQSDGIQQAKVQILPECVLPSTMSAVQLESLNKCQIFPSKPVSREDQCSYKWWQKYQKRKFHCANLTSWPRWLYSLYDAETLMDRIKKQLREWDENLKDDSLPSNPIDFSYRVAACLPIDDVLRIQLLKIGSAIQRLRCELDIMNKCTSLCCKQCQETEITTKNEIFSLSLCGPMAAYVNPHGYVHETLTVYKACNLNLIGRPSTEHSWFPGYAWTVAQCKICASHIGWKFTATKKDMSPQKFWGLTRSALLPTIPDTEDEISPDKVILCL

[2] = target: T1, Protein cereblon/NAD-dependent protein deacylase sirtuin-6; assay: PROTAC activity at CRBN/SIRT6 in human Huh-7 cells assessed as hook effect at 5 uM incubated for 36 hrs by Western blot analysis; type: cell-based
Target sequence in this assay (Q8N6T7 2-355 limits assumed): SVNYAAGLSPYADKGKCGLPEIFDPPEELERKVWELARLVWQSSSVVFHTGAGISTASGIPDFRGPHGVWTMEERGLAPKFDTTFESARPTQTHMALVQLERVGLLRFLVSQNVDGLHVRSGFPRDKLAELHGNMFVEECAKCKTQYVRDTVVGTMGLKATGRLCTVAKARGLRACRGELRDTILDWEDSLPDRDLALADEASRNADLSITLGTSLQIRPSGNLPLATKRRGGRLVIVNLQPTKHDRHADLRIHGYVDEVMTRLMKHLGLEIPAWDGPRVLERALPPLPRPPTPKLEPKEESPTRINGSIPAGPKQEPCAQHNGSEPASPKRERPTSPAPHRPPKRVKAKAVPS
Target sequence in this assay (Q96SW2 whole entry partner): as the sequence (Q96SW2 whole entry) above

SK-HEP1 [3] = assay: Effect on SIRT1 expression in human SK-HEP1 cells at 0.002 to 1 uM incubated for 36 hrs by Western blot analysis; type: functional, cell-based; conditions: dose 0.002-1 µM
[4] = target: T1, Protein cereblon/NAD-dependent protein deacylase sirtuin-6; assay: PROTAC activity at CRBN/SIRT6 in human SK-HEP1 cells assessed as increase in H3K9Ac level incubated for 36 hrs by Western blot analysis; type: cell-based; conditions: dose 0.002-1 µM
Target sequence in this assay (Q8N6T7 2-355 limits assumed): as the sequence (Q8N6T7 2-355 limits assumed) above
Target sequence in this assay (Q96SW2 whole entry partner): as the sequence (Q96SW2 whole entry) above

[5] = target: T1, Protein cereblon/NAD-dependent protein deacylase sirtuin-6; assay: PROTAC activity at CRBN/SIRT6 in human SK-HEP1 cells assessed as induction of SIRT6 degradation at 1 uM incubated for 24 to 36 hrs by Western blot analysis; type: cell-based; conditions: time 24-36 hrs
Target sequence in this assay (Q8N6T7 2-355 limits assumed): as the sequence (Q8N6T7 2-355 limits assumed) above
Target sequence in this assay (Q96SW2 whole entry partner): as the sequence (Q96SW2 whole entry) above

[6] = target: T1, Protein cereblon/NAD-dependent protein deacylase sirtuin-6; assay: PROTAC activity at CRBN/SIRT6 in human SK-HEP1 cells assessed as reduction in density of SIRT6 foci incubated for about 36 hrs by immunofluorescence based analysis; type: cell-based; conditions: dose <= 5.0 µM
Target sequence in this assay (Q8N6T7 2-355 limits assumed): as the sequence (Q8N6T7 2-355 limits assumed) above
Target sequence in this assay (Q96SW2 whole entry partner): as the sequence (Q96SW2 whole entry) above

[7] = target: T1, Protein cereblon/NAD-dependent protein deacylase sirtuin-6; assay: PROTAC activity at CRBN/SIRT6 in human SK-HEP1 cells assessed as reduction in fluorescence intensity of SIRT6 labeling incubated for about 36 hrs by immunofluorescence based analysis; type: cell-based
Target sequence in this assay (Q8N6T7 2-355 limits assumed): as the sequence (Q8N6T7 2-355 limits assumed) above
Target sequence in this assay (Q96SW2 whole entry partner): as the sequence (Q96SW2 whole entry) above

SK-HEP1 [8] = assay: Cytotoxicity against human SK-HEP1 cells combined with irradiation (3 Gy) incubated for 72 hrs by CCK8 assay; type: functional, cell-based; conditions: SK-HEP1, light or radiation study
Huh-7 = assay: Inhibition of colony formation in human Huh-7 cells at 5 to 10 uM incubated for 10 to 14 days with replacement of medium containing compounds on every 3 days by crystal violet staining based analysis; type: functional, cell-based; conditions: dose 5-10 µM, time 10-14 day
SK-HEP1 [9] = assay: Inhibition of colony formation in human SK-HEP1 cells at 2.5 uM incubated for 10 to 14 days with replacement of medium containing compounds on every 3 days in presence of sorafenib by crystal violet staining based analysis; type: functional, cell-based; conditions: time 10-14 day
SK-HEP1 [10] = assay: Induction of apoptosis in human SK-HEP1 cells at 2.5 uM incubated for 72 hrs in presence of sorafenib by Annexin V-FITC/PI staining based flow cytometry; type: functional, cell-based
SK-HEP1 [11] = assay: Effect of SIRT1 mRNA expression in human SK-HEP1 cells at 2.5 uM incubated for 36 hrs by RT-qPCR analysis; type: functional, cell-based
SK-HEP1 [12] = assay: Effect of CSTB mRNA expression in human SK-HEP1 cells at 2.5 uM incubated for 36 hrs by RNA sequencing analysis; type: functional, cell-based
SK-HEP1 [13] = assay: Effect of CDK15 mRNA expression in human SK-HEP1 cells at 2.5 uM incubated for 36 hrs by RNA sequencing analysis; type: functional, cell-based
SK-HEP1 [14] = assay: Effect of SIRT6 mRNA expression in human SK-HEP1 cells at 2.5 uM incubated for 36 hrs by RNA sequencing analysis; type: functional, cell-based
SK-HEP1 [15] = assay: Effect of genes related to cell apoptosis in human SK-HEP1 cells at 2.5 uM incubated for 36 hrs by GSEA analysis; type: functional, cell-based
SK-HEP1 [16] = assay: Effect of genes related to mitochondrial matrix in human SK-HEP1 cells at 2.5 uM incubated for 36 hrs by GSEA analysis; type: functional, cell-based
SK-HEP1 [17] = assay: Downregulation of CCPG1 expression in human SK-HEP1 cells at 2.5 uM incubated for 36 hrs; type: functional, cell-based
SK-HEP1 [18] = assay: Downregulation of ANKRD44 expression in human SK-HEP1 cells at 2.5 uM incubated for 36 hrs; type: functional, cell-based
SK-HEP1 [19] = assay: Downregulation of TEDC1 expression in human SK-HEP1 cells at 2.5 uM incubated for 36 hrs; type: functional, cell-based
SK-HEP1 [20] = assay: Downregulation of FBXO44 expression in human SK-HEP1 cells at 2.5 uM incubated for 36 hrs in presence of MG132; type: functional, cell-based
SK-HEP1 [21] = assay: Downregulation of NAIF1 expression in human SK-HEP1 cells at 2.5 uM incubated for 36 hrs in presence of MG132; type: functional, cell-based
[22] = target: T1, Protein cereblon/NAD-dependent protein deacylase sirtuin-6; assay: PROTAC activity at CRBN/SIRT6 in human U2OS cells expressing EJ5 assessed as inhibition of SNF2H loading onto chromatin incubated for 36 hrs by FACS analysis; type: cell-based
Target sequence in this assay (Q8N6T7 2-355 limits assumed): as the sequence (Q8N6T7 2-355 limits assumed) above
Target sequence in this assay (Q96SW2 whole entry partner): as the sequence (Q96SW2 whole entry) above

SK-HEP1 [23] = assay: Induction of DNA damage in human SK-HEP1 cells assessed as long tail moment incubated for 36 hrs followed by irradiation (10 Gy) for 6 hrs by comet assay; type: functional, cell-based
SK-HEP1 [24] = assay: Antitumor activity against human SK-HEP1 cells xenografted in BALB/c nude mouse at 10 mg/kg treated for 28 to 30 days relative to control; type: functional; conditions: time 28-30 day
SK-HEP1 [25] = assay: Antitumor activity against human SK-HEP1 cells xenografted in BALB/c nude mouse at 10 mg/kg treated for 28 to 30 days under irradiation (3 Gy) (reference value: 38.4 %); type: functional; conditions: time 28-30 day
[26] = target: T1, Protein cereblon/NAD-dependent protein deacylase sirtuin-6; assay: In vivo PROTAC activity of CRBN/SIRT6 in human SK-HEP1 cells xenografted in BALB/c nude mouse assessed as induction of SIRT6 degradation at 10 mg/kg treated for 28 to 30 days; type: functional, organism-based; conditions: time 28-30 day
[27] = Toxicity in BALB/c nude mouse xenografted with human SK-HEP1 cells assessed as pathological damage in heart at 10 mg/kg treated for 28 to 30 days by H and E staining based analysis; type: organism-based; conditions: in vivo, time 28-30 day
[28] = Toxicity in BALB/c nude mouse xenografted with human SK-HEP1 cells assessed as pathological damage in spleen at 10 mg/kg treated for 28 to 30 days by H and E staining based analysis; type: organism-based; conditions: in vivo, time 28-30 day
[29] = Toxicity in BALB/c nude mouse xenografted with human SK-HEP1 cells assessed as pathological damage in lungs at 10 mg/kg treated for 28 to 30 days by H and E staining based analysis; type: organism-based; conditions: in vivo, time 28-30 day
[30] = Toxicity in BALB/c nude mouse xenografted with human SK-HEP1 cells assessed as pathological damage in kidney at 10 mg/kg treated for 28 to 30 days by H and E staining based analysis; type: organism-based; conditions: in vivo, time 28-30 day
[31] = Toxicity in BALB/c nude mouse xenografted with human SK-HEP1 cells assessed as pathological damage in heart at 10 mg/kg treated for 28 to 30 days under irradiation (3 Gy) by H and E staining based analysis; type: organism-based; conditions: in vivo, time 28-30 day
[32] = Toxicity in BALB/c nude mouse xenografted with human SK-HEP1 cells assessed as histopathological abnormalities in spleen at 10 mg/kg treated for 28 to 30 days under irradiation (3 Gy) by H and E staining based analysis; type: organism-based; conditions: in vivo, time 28-30 day
[33] = Toxicity in BALB/c nude mouse xenografted with human SK-HEP1 cells assessed as histopathological abnormalities in lungs at 10 mg/kg treated for 28 to 30 days under irradiation (3 Gy) by H and E staining based analysis; type: organism-based; conditions: in vivo, time 28-30 day
SK-HEP1 [34] = assay: Induction of DNA damage in human SK-HEP1 cells xenografted in BALB/c nude mouse assessed as increase in gamma-H2AX level at 10 mg/kg treated for 28 to 30 days under irradiation (3 Gy); type: functional, organism-based; conditions: time 28-30 day

In the case of `Nc1cc(N2CCN(CC3CCN(c4cc5c(cc4F)C(=O)N(C4CCC(=O)NC4=O)C5=O)CC3)CC2)ccc1[N+](=O)[O-]` (stereo not given), the DC50 [1] is reported as 0.0453 µM, the Activity [2] is reported as “Active” and the Activity (SK-HEP1 [3]) is reported as “No effect”. For the same molecule, the Activity [4] was “Dose-dependent-effect”, the Activity [5] was “Active; Reached A Plateau After 36 Hrs Of Treatment, But A Dramatic Reduction Observed” and the Activity [6] was “Dose-dependent-effect”. The Activity [7] was “Dose-dependent-effect”, the IC50 (SK-HEP1 [8]) was roughly 0.45 µM and the inhibition (Huh-7) was “Active”. The inhibition (SK-HEP1 [9]) was “Active; Exhibited Superior To Compound Alone”, the Activity (SK-HEP1 [10]) was “Active” and the Activity (SK-HEP1 [11]) was “No effect”. For the same molecule, the Activity (SK-HEP1 [12]) was “Active”, the Activity (SK-HEP1 [13]) was “Active” and the Activity (SK-HEP1 [14]) was “No effect; The Mrna Level Did Not Markedly Change”. For the same molecule, the Activity (SK-HEP1 [15]) was “Active”, the Activity (SK-HEP1 [16]) was “Active” and the Activity (SK-HEP1 [17]) was “Active”. The Activity (SK-HEP1 [18]) was “Active”, the Activity (SK-HEP1 [19]) was “Active” and the Activity (SK-HEP1 [20]) was “inactive”. The Activity (SK-HEP1 [21]) was “inactive”, the inhibition [22] was “Active; Results In Decrease In Hr And Nhej Efficiencies” and the Activity (SK-HEP1 [23]) was “Active”. For the same molecule, the T/C (SK-HEP1 [24]) was 39.6%, the T/C (SK-HEP1 [25]) was 26.1% and the Activity [26] was “Active”. For the same molecule, the Activity [27] was “Non-toxic”, the Activity [28] was “Non-toxic” and the Activity [29] was “Non-toxic”. For the same molecule, the Activity [30] was “Non-toxic”, the Activity [31] was “Non-toxic” and the Activity [32] was “Non-toxic”. For the same molecule, the Activity [33] was “Non-toxic” and the Activity (SK-HEP1 [34]) was “Active”.
